From US20050112573A1, “Method of detecting toxic substance” (priority 2001, published 2005)

System: yeast genes (level of expressed mRNA)
Assay: DNA chip analysis of expressed mRNA of yeast genes after 2 h culture with a toxic chemical substance
Type: cell-based, Saccharomyces cerevisiae S288C
Description: Yeast (Saccharomyces cerevtisiae S288C (α SUC2mal mel gap2 CUP1)) were cultured at 25° C. on YPD medium (yeast extract 1%, polypepton 2%, glucose 2%). One of toxic chemical substances was added to the cell at logarithmic growth phase, and the cell was further cultured for two hours. Cell was cultured without any chemical substance in the same condition, and was used as control. Concentrations of the chemical substances were defined to inhibit the growth of the yeast but not lead to death.
After the completion of cultivation, the culture was centrifuged to collect the cells. To the cells, sodium acetate buffer (50 mM sodium acetate, 10 mM EDTA, 1% SDS) was added, and the mixture was shaken at 65° C. for five minutes, followed by returning to room temperature, and obtaining the supernatant, which procedure was repeated two times. To the supernatant, ½ amount of a solution of phenol/chloroform was added, and the mixture was centrifuged to give a supernatant, which was added with an equal amount of chloroform, and the mixture was centrifuged to give a supernatant. To the supernatant, an equal amount of isopropanol containing 0.3 M sodium acetate was added, and the mixture was allowed to stand at room temperature for 30 minutes, after which the mixture was centrifuged to give a sediment of the whole RNAs. Seventy % ethanol was added to the sediment, and the mixture was again centrifuged to give a sediment, which was then dried and dissolved in water. mRNA was isolated from the whole RNAs as followings. In view of the fact that a poly A chain is attached to the 3′ terminus of mRNA, a polynucleotide having a poly T structure which was immobilized on the surface of latex beads was used to trap the mRNA, and then the mRNA was washed and eluted with spine column (Oligotex-dT30<Super>mRNA Purification Kit, Takara). Reverse transcription of the mRNA was conducted with a reverse transcriptase (Super Script II Reverse Transcriptase; catalogue No. 18064-014, GibcoBRL) using fluorescence-labeled nucleotides to give cDNAs that were introduced with Cy3-dUTP or Cy5-dUTP during the reverse transcription.
The labeled cDNAs were dissolved in TE buffer (10 mM Tris-HCl/1 mM EDTA, pH8.0), and the solution was dropped on the DNA chip containing the whole genes of yeast (DNA Chip Research Inc. Japan) so that the cDNAs were hybridized on the DNA chip at 65° C. for over 12 hours. The fluoresces intensity of the DNA chip was read with a scanner, and the ratio relative to the fluorescence intensity resulting from the absence of chemical substance was estimated as the following, which is shown in Tables 1 to 9: [formula]
In the Tables, “Intensity” indicated in the rightmost column is a value of the level of expressed mRNA of each gene in control cells as divided by the average level of the expressions of the whole genes.

COc1cc(CNC(=O)CCCCC=CC(C)C)ccc1O [(12), 8-methyl-N-vanillyl-6-nonenamide]
The level of expressed mRNA in the presence of chemical substance/absence: YDR133C (gene YDR133C): 0.3 | The level of expressed mRNA in the presence of chemical substance/absence: YDR140W (gene YDR140W): 1.1 | The level of expressed mRNA in the presence of chemical substance/absence: YDR221W (gene YDR221W): 0.6 | The level of expressed mRNA in the presence of chemical substance/absence: YDR250C (gene YDR250C): 0.8 | The level of expressed mRNA in the presence of chemical substance/absence: YDR271C (gene YDR271C): 0.7 | The level of expressed mRNA in the presence of chemical substance/absence: YDR278C (gene YDR278C): 0.6 | The level of expressed mRNA in the presence of chemical substance/absence: YDR281C (gene YDR281C): 0.9 | The level of expressed mRNA in the presence of chemical substance/absence: YDR316W (gene YDR316W): 0.6 | The level of expressed mRNA in the presence of chemical substance/absence: YDR338C (gene YDR338C): 0.8 | The level of expressed mRNA in the presence of chemical substance/absence: YDR366C (gene YDR366C): 0.6 | level of expressed mRNA in the presence of chemical substance/in its absence (gene YDR380W): 0.4 | level of expressed mRNA in the presence of chemical substance/in its absence (gene YDR410C): 0.9 | The level of expressed mRNA in the presence of chemical substance/absence: YDR421W (gene YDR421W): 0.7 | The level of expressed mRNA in the presence of chemical substance/absence: YDR425W (gene YDR425W): 1.1 | The level of expressed mRNA in the presence of chemical substance/absence: YDR485C (gene YDR485C): 0.9 | level of expressed mRNA in the presence of chemical substance/in its absence (gene YDR487C): 1.3 | level of expressed mRNA in the presence of chemical substance/in its absence (gene YDR502C): 1.3 | The level of expressed mRNA in the presence of chemical substance/absence: YDR504C (gene YDR504C): 0.7 | level of expressed mRNA in the presence of chemical substance/in its absence (gene YEL011W): 1.5 | level of expressed mRNA in the presence of chemical substance/in its absence (gene YEL020C): 0.8 | The level of expressed mRNA in the presence of chemical substance/absence: YEL044W (gene YEL044W): 0.6 | level of expressed mRNA in the presence of chemical substance/in its absence (gene YER026C): 1.7 | level of expressed mRNA in the presence of chemical substance/in its absence (gene YER069W): 0.8 | The level of expressed mRNA in the presence of chemical substance/absence: YER092W (gene YER092W): 0.9 | The level of expressed mRNA in the presence of chemical substance/absence: YER182W (gene YER182W): 1.0 | The level of expressed mRNA in the presence of chemical substance/absence: YFL042C (gene YFL042C): 0.9 | level of expressed mRNA in the presence of chemical substance/in its absence (gene YFR015C): 0.4 | The level of expressed mRNA in the presence of chemical substance/absence: YFR026C (gene YFR026C): 0.6 | The level of expressed mRNA in the presence of chemical substance/absence: YFR056C (gene YFR056C): 0.5 | level of expressed mRNA in the presence of chemical substance/in its absence (gene YGL001C): 0.9 | level of expressed mRNA in the presence of chemical substance/in its absence (gene YGL022W): 0.7 | level of expressed mRNA in the presence of chemical substance/in its absence (gene YGL039W): 1.3 | The level of expressed mRNA in the presence of chemical substance/absence: YGL041C (gene YGL041C): 0.6 | The level of expressed mRNA in the presence of chemical substance/absence: YGL045W (gene YGL045W): 1.1 | The level of expressed mRNA in the presence of chemical substance/absence: YGL057C (gene YGL057C): 1.1 | The level of expressed mRNA in the presence of chemical substance/absence: YGL088W (gene YGL088W): 0.6 | level of expressed mRNA in the presence of chemical substance/in its absence (gene YGL104C): 1.1 | level of expressed mRNA in the presence of chemical substance/in its absence (gene YGL126W): 0.6 | level of expressed mRNA in the presence of chemical substance/in its absence (gene YGL134W): 0.9 | level of expressed mRNA in the presence of chemical substance/in its absence (gene YGL154C): 0.9 | The level of expressed mRNA in the presence of chemical substance/absence: YGL183C (gene YGL183C): 0.9 | level of expressed mRNA in the presence of chemical substance/in its absence (gene YGL209W): 1.3 | The level of expressed mRNA in the presence of chemical substance/absence: YGL223C (gene YGL223C): 0.9 | level of expressed mRNA in the presence of chemical substance/in its absence (gene YGL253W): 1.2 | The level of expressed mRNA in the presence of chemical substance/absence: YGR038W (gene YGR038W): 1.0 | level of expressed mRNA in the presence of chemical substance/in its absence (gene YGR060W): 1.0 | The level of expressed mRNA in the presence of chemical substance/absence: YGR139W (gene YGR139W): 0.5 | The level of expressed mRNA in the presence of chemical substance/absence: YGR156W (gene YGR156W): 1.2 | The level of expressed mRNA in the presence of chemical substance/absence: YGR198W (gene YGR198W): 0.7 | The level of expressed mRNA in the presence of chemical substance/absence: YGR210C (gene YGR210C): 0.6 | The level of expressed mRNA in the presence of chemical substance/absence: YGR211W (gene YGR211W): 0.6 | The level of expressed mRNA in the presence of chemical substance/absence: YGR237C (gene YGR237C): 0.8 | The level of expressed mRNA in the presence of chemical substance/absence: YGR243W (gene YGR243W): 1.2 | The level of expressed mRNA in the presence of chemical substance/absence: YGR250C (gene YGR250C): 0.6 | The level of expressed mRNA in the presence of chemical substance/absence: YGR266W (gene YGR266W): 0.6 | The level of expressed mRNA in the presence of chemical substance/absence: YGR277C (gene YGR277C): 0.9 | level of expressed mRNA in the presence of chemical substance/in its absence (gene YGR282C): 1.3 | The level of expressed mRNA in the presence of chemical substance/absence: YGR293C (gene YGR293C): 1.0
